# Legend:
# rat mGluR1 = target: T1, rat mGluR1 (Rattus norvegicus, UniProt P23385); test: MGluR1 receptor binding test ([3H]R214127 displacement, rat cerebellar membrane preparation); settings: rat mGluR1, [3H]R214127 3 nM; read-out: mGlu1 Ki
# T1 construct: rat cerebellar membrane preparation was used; from tissue; host or cells: rat cerebellum (membrane preparation)
# Procedure: MGluR1 receptor binding tests were performed according to modified method of Lavreysen et al. (Mol. Pharm., 2003, 63, 1082). Based on the high homology between the human and rat mGluR1 receptors, rat cerebellar membrane preparation was used to determine the binding characteristics of reference compounds and novel compounds to the rat mGluR1. [3H]R214127 (3 nM) was used as radioligand and the nonspecific binding was determined in the presence of 1 μM of R214127.
# IC-50 values were determined from displacement curves by nonlinear regression analysis and were converted to Ki values using the equation method of Cheng and Prusoff (Biochem. Pharmacol., 1973, 22, 3099).
# rat mGluR5 = target: T2, rat mGluR5 (Rattus norvegicus, UniProt P31424); test: MGluR5 receptor binding test ([3H]-M-MPEP displacement, rat cerebro-cortical membrane preparation); settings: rat mGluR5, [3H]-M-MPEP 2 nM; read-out: mGlu5 Ki
# T2 construct: Rat cerebro-cortical membrane preparation was used; from tissue; host or cells: rat cerebral cortex (membrane preparation)
# T2 sequence (P31424 21-1203): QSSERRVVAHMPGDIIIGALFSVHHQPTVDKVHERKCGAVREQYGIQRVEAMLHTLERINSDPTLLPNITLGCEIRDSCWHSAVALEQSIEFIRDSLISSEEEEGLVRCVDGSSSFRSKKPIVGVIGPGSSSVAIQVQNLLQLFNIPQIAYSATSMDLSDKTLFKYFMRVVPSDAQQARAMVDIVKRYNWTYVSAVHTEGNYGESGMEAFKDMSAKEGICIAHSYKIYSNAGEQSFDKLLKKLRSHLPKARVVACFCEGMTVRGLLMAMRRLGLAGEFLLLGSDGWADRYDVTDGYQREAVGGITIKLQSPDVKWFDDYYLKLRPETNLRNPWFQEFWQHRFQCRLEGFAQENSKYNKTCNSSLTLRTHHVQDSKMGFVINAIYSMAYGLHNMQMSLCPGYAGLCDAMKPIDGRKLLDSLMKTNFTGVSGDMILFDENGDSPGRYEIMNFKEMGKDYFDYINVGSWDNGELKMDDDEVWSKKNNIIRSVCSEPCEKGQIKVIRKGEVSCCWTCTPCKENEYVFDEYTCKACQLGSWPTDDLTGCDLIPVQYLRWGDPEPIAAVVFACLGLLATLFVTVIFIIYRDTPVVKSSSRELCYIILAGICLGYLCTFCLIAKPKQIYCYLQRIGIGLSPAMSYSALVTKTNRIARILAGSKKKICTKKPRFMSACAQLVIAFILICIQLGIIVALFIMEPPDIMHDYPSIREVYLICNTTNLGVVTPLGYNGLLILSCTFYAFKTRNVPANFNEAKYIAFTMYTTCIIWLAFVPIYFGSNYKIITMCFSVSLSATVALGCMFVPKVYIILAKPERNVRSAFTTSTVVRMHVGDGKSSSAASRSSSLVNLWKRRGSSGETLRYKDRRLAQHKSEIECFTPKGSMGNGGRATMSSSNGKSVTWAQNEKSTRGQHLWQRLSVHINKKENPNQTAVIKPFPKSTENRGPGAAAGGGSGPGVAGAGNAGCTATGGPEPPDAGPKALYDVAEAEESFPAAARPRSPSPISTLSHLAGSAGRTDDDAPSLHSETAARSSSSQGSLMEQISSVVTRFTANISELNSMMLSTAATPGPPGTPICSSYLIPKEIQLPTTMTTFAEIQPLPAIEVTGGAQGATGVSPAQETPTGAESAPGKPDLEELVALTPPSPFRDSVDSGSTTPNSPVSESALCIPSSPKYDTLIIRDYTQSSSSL
# Procedure: Rat cerebro-cortical membrane preparation was used to determine the binding characteristics of reference compounds and novel compounds to the rat mGluR5. The A18 cell line expressing hmGluR5a (purchased from Euroscreen) was used to determine binding characteristics of the chemical compounds to the human mGluR5a receptor. [3H]-M-MPEP (2 nM) was used as radioligand. The nonspecific binding was determined in the presence of 10 μM M-MPEP.
# T1 sequence (P23385 19-1199): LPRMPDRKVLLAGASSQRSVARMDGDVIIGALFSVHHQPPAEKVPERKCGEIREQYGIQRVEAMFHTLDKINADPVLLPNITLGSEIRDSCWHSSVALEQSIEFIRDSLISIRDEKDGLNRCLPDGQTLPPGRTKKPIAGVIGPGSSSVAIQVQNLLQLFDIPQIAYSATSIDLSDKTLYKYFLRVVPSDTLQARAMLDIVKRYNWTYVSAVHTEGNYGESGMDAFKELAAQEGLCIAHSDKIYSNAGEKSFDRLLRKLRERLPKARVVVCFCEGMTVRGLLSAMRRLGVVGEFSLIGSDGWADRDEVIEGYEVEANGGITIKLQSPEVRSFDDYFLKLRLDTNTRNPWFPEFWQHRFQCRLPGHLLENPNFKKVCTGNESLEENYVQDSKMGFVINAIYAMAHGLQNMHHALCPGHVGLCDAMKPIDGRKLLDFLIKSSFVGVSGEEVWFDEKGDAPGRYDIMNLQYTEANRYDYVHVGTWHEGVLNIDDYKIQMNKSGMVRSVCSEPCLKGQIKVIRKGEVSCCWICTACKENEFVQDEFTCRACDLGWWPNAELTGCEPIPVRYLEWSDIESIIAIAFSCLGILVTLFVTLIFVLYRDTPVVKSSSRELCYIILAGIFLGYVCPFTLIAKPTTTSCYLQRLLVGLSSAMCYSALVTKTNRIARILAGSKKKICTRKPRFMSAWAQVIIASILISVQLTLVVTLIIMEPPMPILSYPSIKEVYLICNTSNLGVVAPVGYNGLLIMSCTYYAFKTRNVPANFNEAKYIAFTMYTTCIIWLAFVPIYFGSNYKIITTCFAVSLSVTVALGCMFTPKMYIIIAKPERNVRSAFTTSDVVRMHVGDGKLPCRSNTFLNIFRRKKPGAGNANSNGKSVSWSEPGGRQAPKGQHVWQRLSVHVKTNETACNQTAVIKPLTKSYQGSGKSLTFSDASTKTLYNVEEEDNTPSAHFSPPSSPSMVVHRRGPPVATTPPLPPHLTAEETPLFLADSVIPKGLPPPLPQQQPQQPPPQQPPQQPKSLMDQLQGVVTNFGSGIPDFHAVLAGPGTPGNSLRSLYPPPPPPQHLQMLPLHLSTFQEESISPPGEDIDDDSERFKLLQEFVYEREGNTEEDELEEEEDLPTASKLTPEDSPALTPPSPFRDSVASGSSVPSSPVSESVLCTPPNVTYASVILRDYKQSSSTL
SMILES,Ki (rat mGluR1),Ki (rat mGluR5)
O=S(=O)(c1cc(F)cc(F)c1)c1cnc2c(F)cccc2c1-c1cccc(Cl)c1 [Compound 115],200 to 500 nM,< 200 nM
Cc1ccc(S(=O)(=O)c2cnc3ccc(F)cc3c2-c2ccc(Cl)cc2)cc1C [Compound 33],> 500 nM,< 200 nM
COc1cccc(-c2c(S(=O)(=O)c3cc(Cl)cc(Cl)c3)cnc3cc(F)ccc23)c1 [Compound 82],> 500 nM,< 200 nM
O=S(=O)(c1cccc(F)c1)c1cnc2c(F)cccc2c1-c1cccc(F)c1 [Compound 60],200 to 500 nM,< 200 nM
COc1ccc(S(=O)(=O)c2cnc3ccc(F)cc3c2-c2cccc(F)c2)cc1Cl [Compound 79],> 500 nM,< 200 nM
COc1ccc(-c2c(S(=O)(=O)c3ccc(C)c(F)c3)cnc3c(F)cccc23)cc1 [Compound 112],> 500 nM,< 200 nM
COc1ccc(-c2c(S(=O)(=O)c3cccc(C#N)c3)cnc3ccc(F)cc23)cc1 [Compound 137],> 500 nM,< 200 nM
O=S(=O)(c1ccc(Cl)s1)c1cnc2cc(Cl)ccc2c1-c1ccc(F)cc1 [Compound 187],> 500 nM,200 to 500 nM
O=S(=O)(c1ccc(F)c(Cl)c1)c1cnc2c(F)cccc2c1-c1cccc(Cl)c1 [Compound 229],200 to 500 nM,< 200 nM
O=S(=O)(c1cc(Cl)cc(Cl)c1)c1cnc2cc(F)ccc2c1-c1ccc(Cl)cc1 [Compound 157],200 to 500 nM,< 200 nM
O=S(=O)(c1cccc(F)c1)c1cnc2cc(Cl)ccc2c1-c1ccc(F)cc1 [Compound 180],> 500 nM,< 200 nM
N#Cc1cc(F)cc(S(=O)(=O)c2cnc3cc(Cl)ccc3c2-c2cccc(F)c2)c1 [Compound 221],200 to 500 nM,< 200 nM
O=S(=O)(c1ccc(F)c(Cl)c1)c1cnc2ccc(F)cc2c1-c1ccc(Cl)cc1 [Compound 153],200 to 500 nM,< 200 nM
N#Cc1cc(S(=O)(=O)c2cnc3cc(F)ccc3c2-c2cccc(F)c2)ccc1F [Compound 216],> 500 nM,< 200 nM
O=S(=O)(c1ccc(F)c(Cl)c1)c1cnc2c(F)cccc2c1-c1ccccc1F [Compound 209],200 to 500 nM,< 200 nM
N#Cc1cccc(S(=O)(=O)c2cnc3ccc(F)cc3c2-c2cccc(Cl)c2)c1 [Compound 135],200 to 500 nM,< 200 nM
Cc1ccc(S(=O)(=O)c2cnc3c(F)cccc3c2-c2cccc(Cl)c2)cc1F [Compound 109],> 500 nM,< 200 nM
COc1cccc(S(=O)(=O)c2cnc3ccc(F)cc3c2-c2ccc(Cl)cc2)c1 [Compound 144],> 500 nM,< 200 nM
Cc1ccc(S(=O)(=O)c2cnc3ccc(F)cc3c2-c2ccc(Cl)cc2)cc1Cl [Compound 139],> 500 nM,< 200 nM
"Cc1ccc(S(=O)(=O)c2cnc3cc(F)ccc3c2-c2cccc(Cl)c2)cc1C [Compound 17, 4-(3-chloro-phenyl)-3-(3,4-dimethyl-benzenesulfonyl)-7-fluoro-quinoline]",> 500 nM,< 200 nM
COc1ccc(-c2c(S(=O)(=O)c3ccc(F)c(F)c3)cnc3cc(F)ccc23)cc1 [Compound 99],> 500 nM,< 200 nM
N#Cc1cccc(S(=O)(=O)c2cnc3ccc(F)cc3c2-c2cccc(F)c2)c1 [Compound 67],200 to 500 nM,< 200 nM
O=S(=O)(c1cc(F)cc(F)c1)c1cnc2ccc(F)cc2c1-c1ccc(F)cc1 [Compound 66],> 500 nM,200 to 500 nM
O=S(=O)(c1ccc(F)c(F)c1)c1cnc2ccc(F)cc2c1-c1cccc(Cl)c1 [Compound 149],200 to 500 nM,200 to 500 nM
N#Cc1cccc(S(=O)(=O)c2cnc3cc(F)ccc3c2-c2ccc(Cl)cc2)c1 [Compound 37],200 to 500 nM,< 200 nM
O=S(=O)(c1ccc(F)cc1)c1cnc2c(F)cccc2c1-c1ccc(Cl)cc1 [Compound 21],200 to 500 nM,< 200 nM
Cc1ccc(S(=O)(=O)c2cnc3ccc(F)cc3c2-c2cccc(F)c2)cc1Cl [Compound 140],> 500 nM,< 200 nM
N#Cc1cc(S(=O)(=O)c2cnc3cc(Cl)ccc3c2-c2cccc(F)c2)ccc1F [Compound 219],< 200 nM,< 200 nM
O=S(=O)(c1ccc(F)c(F)c1)c1cnc2ccc(F)cc2c1-c1ccc(F)cc1 [Compound 152],200 to 500 nM,< 200 nM
O=S(=O)(c1cc(Cl)cc(Cl)c1)c1cnc2ccc(F)cc2c1-c1cccc(F)c1 [Compound 124],200 to 500 nM,< 200 nM
